Biological target: T1, Human autotaxin enzyme (Homo sapiens, UniProt Q13822)
T1 construct: purchased R&D System
Assay: Evaluation of autotaxin inhibitor, 18:0 Lyso PC / choline assay (Test Example 2)
Assay type: biochemical
Details: human autotaxin enzyme, 18:0 Lyso PC substrate, choline assay, room temperature 2 hours; read-out: Inhibitor activity (IC50)
Experimental: Solution B containing 100 mM Tris-HCl buffer (pH7.5), 150 mM NaCl, 5 mM MgCl2, and 0.05% Triton X-100 was prepared. Human autotaxin enzyme (purchased from R&D System) was diluted with Solution B, and 2.5 μl of which was added to a solution of test compound in DMSO. Furthermore, 2.5 μl of 200 μM 18:0 Lyso PC (purchased from Avanti Polar Lipids) in Solution B was added and allowed to react at room temperature for 2 hours. After completion of the reaction, 15 μl of the coline assay reagent. (100 mM Tris-HCl buffer (pH7.5), 5 mM. MgCl2, 77 μg/ml coline oxidase, 10 μg/ml peroxydase, 25μM 10-acetyl-3,7-dihydroxyphenoxazine, and excess autotaxin inhibitor) was added and allowed to react at room temperature for 20 minutes. The fluorescent dye Resorufin, which was produced by the reaction, was detected. The fluorescence was detected using ViewLux
(PerkinElmer, Inc.) with a excitation wavelength of 531 nm and a fluorescence wavelength of 598 nm.
The percent inhibition of the test compound was calculated by assuming the sample with no test compound as 0% inhibition and the sample with no enzyme as 100% inhibition, and the percent inhibitions at different concentrations of the test compound were plotted to obtain a concentration-dependent curve.

Compound | IC50 [nM]
CCCCCc1nc(-c2ccc(Cl)cc2)cc(=O)n1CC(=O)N1CCOC[C@H]1C(=O)O [Compound I-0067] | 100 to 1000
CCCCCc1nc(-c2ccc(Cl)cc2)cc(=O)n1CC(=O)N1CCCC1C(=O)O (stereo not shown) [Compound I-0068] | ≥ 1000
CCCCCc1nc(-c2ccc(Cl)cc2)cc(=O)n1CC(=O)NC1(C(=O)O)CC1 [Compound I-0069] | 10 to 100
CCCCCc1nc(-c2ccc(Cl)cc2)cc(=O)n1CC(=O)NCC(C)(C)C(=O)O [Compound I-0070] | < 10
CCCCCc1nc(-c2ccc(Cl)cc2)cc(=O)n1CC(=O)N[C@H]1C[C@H](C(=O)O)C1 [Compound I-0071] | < 10
CCCCCc1nc(-c2ccc(Cl)cc2)cc(=O)n1CC(=O)NC12CCC(C(=O)O)(CC1)CC2 [Compound I-0072] | < 10
CCCCCc1nc(-c2ccc(Cl)cc2)cc(=O)n1CC(=O)NC1(C(=O)O)CCC1 [Compound I-0073] | < 10
CCCCCc1nc(-c2ccc(Cl)cc2)cc(=O)n1Cc1cccc(C(=O)OC)c1 [Compound I-0074] | ≥ 1000
CCCCCc1nc(-c2ccc(Cl)cc2)cc(=O)n1CC(=O)NC(CO)Cc1ccc(F)cc1 (stereo not shown) [Compound I-0075] | ≥ 1000
CCCCCc1nc(-c2ccc(Cl)cc2)cc(=O)n1CC(=O)N1CCOCC1c1ccccc1 (stereo not shown) [Compound I-0076] | 100 to 1000
CCCCCc1nc(-c2ccc(Cl)cc2)cc(=O)n1CC(=O)NC1(C#N)CCCCC1 [Compound I-0077] | 100 to 1000
CCCCCc1nc(-c2ccc(Cl)cc2)cc(=O)n1CC(=O)N[C@@H]1CN2CCC1CC2 [Compound I-0078] | ≥ 1000
CCCCCc1nc(-c2ccc(Cl)cc2)cc(=O)n1CC(=O)NC(C)CC#N (stereo not shown) [Compound I-0079] | 10 to 100
CCCCCc1nc(-c2ccc(Cl)cc2)cc(=O)n1CC(=O)NCCC#N [Compound I-0080] | 10 to 100
CCCCCc1nc(-c2ccc(Cl)cc2)cc(=O)n1CC(=O)NC1CCS(=O)(=O)C1 (stereo not shown) [Compound I-0081] | 10 to 100
CCCCCc1nc(-c2ccc(Cl)cc2)cc(=O)n1CC(=O)NC1CCCNC1=O (stereo not shown) [Compound I-0082] | 100 to 1000
CCCCCc1nc(-c2ccc(Cl)cc2)cc(=O)n1CC(=O)Nc1ncc(C#N)s1 [Compound I-0083] | ≥ 1000
CCCCCc1nc(-c2ccc(Cl)cc2)cc(=O)n1CC(=O)N1CCOCC1 [Compound I-0084] | 10 to 100
CCCCCc1nc(-c2ccc(Cl)cc2)cc(=O)n1CC(=O)NCC#N [Compound I-0085] | 10 to 100
CCCCCc1nc(-c2ccc(Cl)cc2)cc(=O)n1CC(=O)NC1CCOCC1 [Compound I-0086] | 100 to 1000
CCCCCc1nc(-c2ccc(Cl)cc2)cc(=O)n1CC(=O)N1CCC(F)(F)CC1 [Compound I-0087] | 10 to 100
CCCCCc1nc(-c2ccc(Cl)cc2)cc(=O)n1CC(=O)NCC(O)Cc1ccccc1 (stereo not shown) [Compound I-0088] | 10 to 100

Compound | IC50 [nM]
CCCCCc1nc(-c2ccc(Cl)cc2)cc(=O)n1CC(=O)NC1(c2cccnc2)CC1 [Compound I-0089] | 10 to 100
CCCCCc1nc(-c2ccc(Cl)cc2)cc(=O)n1CC(=O)NC1(C#N)CC1 [Compound I-0090] | 10 to 100
CCCCCc1nc(-c2ccc(Cl)cc2)cc(=O)n1CC(=O)N1CC2(COC2)C1 [Compound I-0091] | ≥ 1000
CCCCCc1nc(-c2ccc(Cl)cc2)cc(=O)n1CC(=O)N[C@@H](CO)Cc1ccccc1 [Compound I-0092] | 100 to 1000
CCCCCc1nc(-c2ccc(Cl)cc2)cc(=O)n1CC(=O)NC1CCS(=O)(=O)CC1 [Compound I-0093] | 10 to 100
CCCCCc1nc(-c2ccc(Cl)cc2)cc(=O)n1CC(=O)NCCS(C)(=O)=O [Compound I-0094] | 10 to 100
CCCCCc1nc(-c2ccc(Cl)cc2)cc(=O)n1CC(=O)N1[C@H](C)COC[C@@H]1C [Compound I-0095] | 10 to 100
CCCCCc1nc(-c2ccc(Cl)cc2)cc(=O)n1CC(=O)NCCC(C)O (stereo not shown) [Compound I-0096] | 100 to 1000
CCCCCc1nc(-c2ccc(Cl)cc2)cc(=O)n1CC(=O)N[C@@H]1CCN(C(C)=O)C1 [Compound I-0097] | 100 to 1000
CCCCCc1nc(-c2ccc(Cl)cc2)cc(=O)n1CC(=O)NCC(C)(C)O [Compound I-0098] | 10 to 100
CCCCCc1nc(-c2ccc(Cl)cc2)cc(=O)n1CC(=O)Nc1cc(C2CC2)no1 [Compound I-0099] | ≥ 1000
CCCCCc1nc(-c2ccc(Cl)cc2)cc(=O)n1CC(=O)N1CCOC(c2ccccc2)C1 (stereo not shown) [Compound I-0100] | 100 to 1000
CCCCCc1nc(-c2ccc(Cl)cc2)cc(=O)n1CC(=O)N[C@@H](CCc1ccccc1)C(=O)O [Compound I-0101] | 10 to 100
CCCCCc1nc(-c2ccc(Cl)cc2)cc(=O)n1CC(=O)NCCCc1ccccc1 [Compound I-0102] | 100 to 1000
CCCCCc1nc(-c2ccc(Cl)cc2)cc(=O)n1CC(=O)NCCc1ccccc1 [Compound I-0103] | 10 to 100
CCCCCc1nc(-c2ccc(Cl)cc2)cc(=O)n1CC(=O)NC1CN2CCC1CC2 (stereo not shown) [Compound I-0104] | 100 to 1000
N#CCCCNc1nc(-c2ccc(C#N)cc2)cc(=O)n1Cc1ccccc1 [Compound I-0105] | 100 to 1000
N#CCNc1nc(-c2ccc(C#N)cc2)cc(=O)n1Cc1ccccc1 [Compound I-0106] | ≥ 1000
COc1ccc(Cn2c(-c3ccc(Cl)cc3)cc(=O)n(CC(=O)NC(Cc3ccccc3)C(=O)O)c2=O)cc1 (stereo not shown) [Compound I-0107] | ≥ 1000
Cn1c(=O)cc(-c2ccc(Cl)cc2)n(CCCC#N)c1=N [Compound I-0108] | ≥ 1000
COC(=O)Cn1c(CCCC(F)(F)F)nc(-c2ccc(Cl)cc2)cc1=O [Compound I-0109] | 10 to 100
O=C(O)Cn1c(CCCC(F)(F)F)nc(-c2ccc(Cl)cc2)cc1=O [Compound I-0110] | ≥ 1000

Compound | IC50 [nM]
COC(=O)c1cccc(Cn2c(CCCC(F)(F)F)nc(-c3ccc(Cl)cc3)cc2=O)c1 [Compound I-0111] | 10 to 100
O=C(O)c1cccc(Cn2c(CCCC(F)(F)F)nc(-c3ccc(Cl)cc3)cc2=O)c1 [Compound I-0112] | 10 to 100
CCCCCc1nc(-c2ccc(Cl)cc2)cc(=O)n1CC(=O)N1CCC(C(=O)OC)CC1 [Compound I-0113] | 10 to 100
CCCCCc1nc(-c2ccc(Cl)cc2)cc(=O)n1CC(=O)NC(C)(C)C(=O)OC [Compound I-0114] | 10 to 100
N#CCCCn1c(-c2ccc(Cl)cc2)cc(=O)n(CC(=O)NC(Cc2ccccc2)C(=O)O)c1=O (stereo not shown) [Compound I-0115] | ≥ 1000
N#CCCCOc1nc(-c2ccc(Cl)cc2)cc(=O)n1CC(=O)NC(Cc1ccccc1)C(=O)O (stereo not shown) [Compound I-0116] | 10 to 100
O=C(Cn1c(CCCC(F)(F)F)nc(-c2ccc(Cl)cc2)cc1=O)N(CCO)CCO [Compound I-0117] | 10 to 100
NC(=O)C1CCN(C(=O)Cn2c(CCCC(F)(F)F)nc(-c3ccc(Cl)cc3)cc2=O)CC1 [Compound I-0118] | 10 to 100
CC(O)CNC(=O)Cn1c(CCCC(F)(F)F)nc(-c2ccc(Cl)cc2)cc1=O (stereo not shown) [Compound I-0119] | 10 to 100
O=C(Cn1c(CCCC(F)(F)F)nc(-c2ccc(Cl)cc2)cc1=O)NCc1cc(=O)[nH]o1 [Compound I-0120] | < 10
O=C(Cn1c(CCCC(F)(F)F)nc(-c2ccc(Cl)cc2)cc1=O)NCCN1CCNC1=O [Compound I-0121] | 100 to 1000
CC(C)(CNC(=O)Cn1c(CCCC(F)(F)F)nc(-c2ccc(Cl)cc2)cc1=O)N1CCOCC1 [Compound I-0122] | 100 to 1000
N#CC1(NC(=O)Cn2c(CCCC(F)(F)F)nc(-c3ccc(Cl)cc3)cc2=O)CC1 [Compound I-0123] | 10 to 100
O=C(Cn1c(CCCC(F)(F)F)nc(-c2ccc(Cl)cc2)cc1=O)NCC1(CO)CC1 [Compound I-0124] | 10 to 100
C[C@@H]1COC[C@H](C)N1C(=O)Cn1c(CCCC(F)(F)F)nc(-c2ccc(Cl)cc2)cc1=O [Compound I-0125] | 10 to 100
CNC(=O)CNC(=O)Cn1c(CCCC(F)(F)F)nc(-c2ccc(Cl)cc2)cc1=O [Compound I-0126] | 100 to 1000
CN(C)C(=O)CNC(=O)Cn1c(CCCC(F)(F)F)nc(-c2ccc(Cl)cc2)cc1=O [Compound I-0127] | 100 to 1000
CCNC(=O)N1CCC(NC(=O)Cn2c(CCCC(F)(F)F)nc(-c3ccc(Cl)cc3)cc2=O)CC1 [Compound I-0128] | 10 to 100
CNC(=O)CN1CCC(NC(=O)Cn2c(CCCC(F)(F)F)nc(-c3ccc(Cl)cc3)cc2=O)CC1 [Compound I-0129] | 100 to 1000
O=C(Cn1c(CCCC(F)(F)F)nc(-c2ccc(Cl)cc2)cc1=O)N1CCC(O)(CO)CC1 [Compound I-0130] | 10 to 100

Reference: patent publication US10183949B2, “Pyrimidinone derivative having autotaxin-inhibitory activity” (The University of Tokyo, priority 2014, dated 2019)
